The text below walks through data of patent EP4559908A1, “HETEROARYL DERIVATIVE COMPOUND AND USE THEREOF” (S2CBio Inc., priority 2022, dated 2024).

Each structure is given as a SMILES string. Read-outs that look alike come from different tables or passages of the source.

The target in the assay is T1, human ANO6 (variant 5) (Homo sapiens, UniProt Q4KMQ2).
T1 construct: expressed in transfected cells; host or cells: Fischer rat thyroid (FRT) cells
T1 sequence (Q4KMQ2 1-931 isoform Q4KMQ2-2): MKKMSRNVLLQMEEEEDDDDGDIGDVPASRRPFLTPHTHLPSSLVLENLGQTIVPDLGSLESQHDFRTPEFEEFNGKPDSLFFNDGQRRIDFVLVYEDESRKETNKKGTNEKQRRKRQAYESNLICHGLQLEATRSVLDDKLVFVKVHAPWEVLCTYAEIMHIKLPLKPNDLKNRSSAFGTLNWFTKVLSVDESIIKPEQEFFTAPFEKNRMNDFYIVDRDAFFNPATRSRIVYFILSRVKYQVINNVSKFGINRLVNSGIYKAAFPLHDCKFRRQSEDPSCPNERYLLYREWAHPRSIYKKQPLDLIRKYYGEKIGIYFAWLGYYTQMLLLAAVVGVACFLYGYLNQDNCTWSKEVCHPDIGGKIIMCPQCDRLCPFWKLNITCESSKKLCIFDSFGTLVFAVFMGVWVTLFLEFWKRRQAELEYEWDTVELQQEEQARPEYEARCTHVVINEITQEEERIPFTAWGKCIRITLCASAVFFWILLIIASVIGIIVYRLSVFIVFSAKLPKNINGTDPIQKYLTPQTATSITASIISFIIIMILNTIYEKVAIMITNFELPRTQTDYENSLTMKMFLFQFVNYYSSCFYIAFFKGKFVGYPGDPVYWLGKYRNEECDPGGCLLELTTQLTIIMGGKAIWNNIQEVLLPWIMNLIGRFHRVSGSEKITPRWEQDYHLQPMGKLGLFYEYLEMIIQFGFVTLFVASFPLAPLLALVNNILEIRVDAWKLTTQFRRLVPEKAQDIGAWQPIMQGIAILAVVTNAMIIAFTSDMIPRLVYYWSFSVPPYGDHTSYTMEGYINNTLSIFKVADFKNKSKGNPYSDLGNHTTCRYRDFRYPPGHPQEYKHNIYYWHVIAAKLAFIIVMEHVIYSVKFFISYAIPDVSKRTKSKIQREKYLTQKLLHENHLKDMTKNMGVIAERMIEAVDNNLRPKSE
The assay is described as follows: Lact C2 assay (measuring phosphatidylserine externalization scramblase function). The class given is cell-based. Conditions: FRT cells expressing human ANO6 (variant 5), ionomycin 10 µM, Lact-C2-GFP fluorescence, average of three tests; for inhibition at 1 µM / inhibition at 0.05 µM / inhibition at 0.1 µM: FRT; for inhibition at 0.05 µM: read-out: % Inhibition 50 nM. In short, it runs like this:
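Cells were pretreated 10 min with compound (50 nM, 100 nM, 1 µM; 1% DMSO), then given 10 µM ionomycin for 10 min. Surface phosphatidylserine was stained with 500 nM Lact-C2-GFP (10 min, 37 °C), fixed and imaged. Inhibition was scaled between untreated (100%) and ionomycin-alone (0%) wells.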

Where [1] appears, read: compound 1 µM, read-out: % Inhibition 1 µM.

By inhibition is commonly meant the percentage by which the read-out fell short of the control. Consider `Fc1cc2[nH]c(-c3cccc(Nc4ncc(-c5ccccn5)cn4)c3)nc2cn1` [Example 286, N-(3-(6-fluoro-1H-imidazo[4,5-c]pyridin-2-yl)phenyl)-5-(pyridin-2-yl)pyrimidin-2-amine], for which the inhibition at 1 µM under setting [1] was over 60%.

Consider `Cc1noc(-c2ccc3nc(-c4cccc(Nc5ccc(-c6cccnn6)cc5)c4)[nH]c3c2)n1` [Example 93, 3-(6-(3-methyl-1,2,4-oxadiazol-5-yl)-1H-benzo[d]imidazol-2-yl)-N-(4-(pyridazin-3-yl)phenyl)aniline], for which, for the setting “compound 50 nM”, the inhibition at 0.05 µM is 30 to 60%. The inhibition at 1 µM under setting [1] was over 60%.

`Fc1cc2nc(-c3cccc(Nc4ccc(-c5ccccc5)nn4)c3)[nH]c2cc1Br` [Example 4, N-[3-(6-bromo-5-fluoro-1H-benzo[d]imidazol-2-yl)phenyl]-6-phenylpyridazin-3-amine]: the inhibition at 0.05 µM (compound 50 nM) lay within 30 to 60%. This compound showed an inhibition at 0.1 µM (compound 100 nM) of over 60%. The inhibition at 1 µM under setting [1] is over 60%.

With `c1ccc(-c2cnc(Nc3cccc(-c4nc5ccccc5[nH]4)c3)nn2)cc1` [Example 271, N-(3-(1H-benzo[d]imidazol-2-yl)phenyl)-6-phenyl-1,2,4-triazin-3-amine], under setting [1], the inhibition at 1 µM fell in the range of 30 to 60%.

With `Fc1cccc(-c2cnc(Nc3cccc(-c4nc5ccc(C(F)(F)F)cc5[nH]4)c3)nc2)n1` [Example 258, 5-(6-fluoropyridin-2-yl)-N-(3-(6-(trifluoromethyl)-1H-benzo[d]imidazol-2-yl)phenyl)pyrimidin-2-amine], the inhibition at 0.05 µM (compound 50 nM) was over 60%. Moreover, under setting [1], the inhibition at 1 µM is over 60%.

With `Fc1cccnc1-c1ccc(Nc2cccc(-c3nc4ccc(C(F)(F)F)cc4[nH]3)c2)cc1` [Example 251, N-(4-(3-fluoropyridin-2-yl)phenyl)-3-(6-(trifluoromethyl)-1H-benzo[d]imidazol-2-yl)aniline], the inhibition at 1 µM under setting [1] was over 60%.

Consider `FC(F)(F)c1cc2nc(-c3cccc(Nc4ccc(-c5ccccc5)nn4)c3)[nH]c2cc1Br` [Example 9, N-{3-[6-bromo-5-(trifluoromethyl)-1H-benzo[d]imidazol-2-yl]phenyl}-6-phenylpyridazin-3-amine], for which, where the note is “compound 50 nM”, the inhibition at 0.05 µM was over 60%. Moreover, under “compound 100 nM”, the inhibition at 0.1 µM is over 60%. For the same compound, under setting [1], the inhibition at 1 µM was over 60%.

As to `c1ccc(-c2ccc(Nc3cccc(-c4nc5ccccc5[nH]4)c3)nn2)cc1` [Example 2, N-(3-(1H-benzo[d]imidazol-2-yl)phenyl)-6-phenylpyridazin-3-amine], the inhibition at 0.1 µM (compound 100 nM) is over 60%. Besides, under setting [1], the inhibition at 1 µM was over 60%.

`FC(F)(F)Oc1ccc2nc(-c3cccc(Nc4ccc(-c5ccncn5)cc4)c3)[nH]c2c1` [Example 109, N-(4-pyrimidin-4-ylphenyl)-3-[6-(trifluoromethoxy)-1H-benzo[d]imidazol-2-yl]aniline]: the inhibition at 0.05 µM (compound 50 nM) was over 60%. Moreover, the inhibition at 1 µM under setting [1] is over 60%.

`c1cc(Nc2ccc(-c3cccnn3)cn2)cc(-c2nc3ccccc3[nH]2)c1` [Example 56, N-[3-(1H-benzo[d]imidazol-2-yl)phenyl]-5-(pyridazin-3-yl)pyridin-2-amine]: where the note is “compound 50 nM”, the inhibition at 0.05 µM lay in the range of 30 to 60%. For the same compound, the inhibition at 0.1 µM (compound 100 nM) was over 60%.

For the compound `c1ccc(-c2cnc(Nc3cccc(-c4nc5ccccc5[nH]4)c3)nc2)nc1` [Example 44, N-(3-(1H-benzo[d]imidazol-2-yl)phenyl)-5-(pyridin-2-yl)pyrimidin-2-amine], where the note is “compound 50 nM”, the inhibition at 0.05 µM was over 60%. The inhibition at 0.1 µM (compound 100 nM) was over 60%.

As for `Clc1cc2nc(-c3cccc(Nc4ccc(-c5ccccc5)nn4)c3)[nH]c2cc1Cl` [Example 7, N-(3-(5,6-dichloro-1H-benzo[d]imidazol-2-yl)phenyl)-6-phenylpyridazin-3-amine], for the setting “compound 50 nM”, the inhibition at 0.05 µM was over 60%. For the setting “compound 100 nM”, this compound showed an inhibition at 0.1 µM of over 60%. Besides, the inhibition at 1 µM under setting [1] was over 60%.

On to `Clc1ccc2nc(-c3cccc(Nc4ccc(-c5cccnn5)cc4)c3)[nH]c2c1` [Example 226, 3-(6-chloro-1H-benzo[d]imidazol-2-yl)-N-(4-(pyridazin-3-yl)phenyl)aniline], for which the inhibition at 0.05 µM (compound 50 nM) was over 60%.

`Fc1cccc(-c2cnc(Nc3cccc(-c4nc5ccc(C(F)(F)F)cc5[nH]4)c3)nc2)c1` [Example 17, 5-(3-Fluorophenyl)-N-{3-[6-(trifluoromethyl)-1H-benzo[d]imidazol-2-yl]phenyl}pyrimidin-2-amine]: for the setting “compound 50 nM”, the inhibition at 0.05 µM was over 60%. The compound further showed an inhibition at 0.1 µM (compound 100 nM) of over 60%. For the same compound, the inhibition at 1 µM under setting [1] was over 60%.

For the compound `Fc1cc2[nH]c(-c3cccc(Nc4ccc(-c5ccccn5)cn4)c3)nc2cn1` [Example 281, N-(3-(6-fluoro-1H-imidazo[4,5-c]pyridin-2-yl)phenyl)-[2,3'-bipyridin]-6'-amine], under “compound 50 nM”, the inhibition at 0.05 µM was over 60%. Also, the inhibition at 1 µM under setting [1] was over 60%.

Take `FC(F)(F)c1ccc2nc(-c3cncc(Nc4ccc(-c5cccnn5)cc4)c3)[nH]c2c1` [Example 262, N-(4-(pyridazin-3-yl)phenyl)-5-(6-(trifluoromethyl)-1H-benzo[d]imidazol-2-yl)pyridin-3-amine]: the inhibition at 0.05 µM (compound 50 nM) is over 60%.

Take `Fc1ccc(-c2cnc(Nc3cccc(-c4nc5ccc(C(F)(F)F)cc5[nH]4)c3)nc2)nc1` [Example 260, 5-(5-fluoropyridin-2-yl)-N-(3-(6-(trifluoromethyl)-1H-benzo[d]imidazol-2-yl)phenyl)pyrimidin-2-amine]: the inhibition at 0.05 µM (compound 50 nM) lay within 30 to 60%. Further, the inhibition at 1 µM under setting [1] is over 60%.

`Fc1ccc2nc(-c3cccc(Nc4ncc(-c5cccnn5)cn4)c3)[nH]c2c1` [Example 55, N-(3-(6-fluoro-1H-benzo[d]imidazol-2-yl)phenyl)-5-(pyridazin-3-yl)pyrimidin-2-amine]: the “% Inhibition 50 nM” value (compound 50 nM) is given as “A (> 60% inhibition)”. The “% Inhibition 100 nM” value (compound 100 nM) is “A (> 60% inhibition)”.

With `FC(F)(F)c1ccc2nc(-c3cccc(Nc4ccc(-c5cnccn5)cc4)c3)[nH]c2c1` [Example 29, N-[4-(pyrazin-2-yl)phenyl]-3-[6-(trifluoromethyl)-1H-benzo[d]imidazol-2-yl]aniline], the inhibition at 0.05 µM (compound 50 nM) was over 60%. Under “compound 100 nM”, this compound had an inhibition at 0.1 µM of over 60%.

On to `FC(F)(F)c1ccc2nc(-c3ccnc(Nc4ncc(-c5ccccn5)cn4)c3)[nH]c2c1` [Example 306, 5-(pyridin-2-yl)-N-(4-(6-(trifluoromethyl)-1H-benzo[d]imidazol-2-yl)pyridin-2-yl)pyrimidin-2-amine], for which, under setting [1], the inhibition at 1 µM was in the range of 30 to 60%.

Take `FC(F)(F)c1ccc2nc(-c3cccc(Nc4ncc(-c5ccccc5)cn4)c3)[nH]c2c1` [Example 14, 5-phenyl-N-(3-(6-(trifluoromethyl)-1H-benzo[d]imidazol-2-yl)phenyl)pyrimidin-2-amine]: where the note is “compound 50 nM”, the inhibition at 0.05 µM is over 60%. For the setting “compound 100 nM”, this compound yielded an inhibition at 0.1 µM of over 60%. For the same compound, the inhibition at 1 µM under setting [1] is over 60%.

Consider `c1cc(Nc2ccc(-c3cnccn3)cc2)cc(-c2nc3ccccc3[nH]2)c1` [Example 32, 3-(1H-benzo[d]imidazol-2-yl)-N-(4-(pyrazin-2-yl)phenyl)aniline], for which the inhibition at 0.05 µM (compound 50 nM) was in the range of 30 to 60%. Where the note is “compound 100 nM”, this compound came in with an inhibition at 0.1 µM of 30 to 60%.

Take `c1ccc(-c2ccc(Nc3cccc(-c4nc5ccccc5[nH]4)c3)nn2)nc1` [Example 255, N-(3-(1H-benzo[d]imidazol-2-yl)phenyl)-6-(pyridin-2-yl)pyrimidin-3-amine]: for the setting “read-out: % Inhibition 1 µM, compound 1 µM”, the inhibition at 1 µM is over 60%.
